# According to patent US10894784B2, “Heteroarylbenzimidazole compounds” (BAYER PHARMA AKTIENGESELLSCHAFT, priority 2015, dated 2021):
# Target: TBK1 (Homo sapiens (Human), UniProt Q9UHD2)
# Test: TBK1 low ATP kinase assay (in vitro assay 1)
# Type: biochemical
# Conditions: in vitro assay 1, read-out: TBK1 low ATP kinase assay IC50
# Chain of TBK1 (Q9UHD2 whole entry): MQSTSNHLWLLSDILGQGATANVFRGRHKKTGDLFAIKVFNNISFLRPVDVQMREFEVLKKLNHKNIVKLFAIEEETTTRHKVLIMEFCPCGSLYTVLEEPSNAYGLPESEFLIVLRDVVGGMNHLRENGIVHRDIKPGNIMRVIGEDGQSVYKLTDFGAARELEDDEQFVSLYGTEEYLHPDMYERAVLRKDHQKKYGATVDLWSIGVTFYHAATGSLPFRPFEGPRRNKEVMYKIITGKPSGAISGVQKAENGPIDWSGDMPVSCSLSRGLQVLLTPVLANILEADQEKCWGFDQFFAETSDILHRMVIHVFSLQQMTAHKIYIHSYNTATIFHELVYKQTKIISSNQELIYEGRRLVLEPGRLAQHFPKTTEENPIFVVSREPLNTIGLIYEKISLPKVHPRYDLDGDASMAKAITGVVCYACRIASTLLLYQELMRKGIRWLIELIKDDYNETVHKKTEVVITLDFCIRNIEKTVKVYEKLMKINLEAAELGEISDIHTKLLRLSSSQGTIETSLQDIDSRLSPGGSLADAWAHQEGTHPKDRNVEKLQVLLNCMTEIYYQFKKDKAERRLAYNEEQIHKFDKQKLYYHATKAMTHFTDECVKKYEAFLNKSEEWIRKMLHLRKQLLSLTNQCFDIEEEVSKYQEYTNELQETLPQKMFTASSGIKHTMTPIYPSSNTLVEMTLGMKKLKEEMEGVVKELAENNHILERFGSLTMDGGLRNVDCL
row,IC50 [µM],SMILES
1,0.279,"COc1cc(-c2ccc3nc(Nc4cc(CN5CCN(C(=O)C6CCC6)CC5)ccn4)[nH]c3c2)c(F)cn1 [Example 03.03, cyclobutyl{4-[(2-{[6-(5-fluoro-2-methoxypyridin-4-yl)-1H-benzimidazol-2-yl]amino}pyridin-4-yl)methyl]piperazin-1-yl}methanone]"
2,0.0138,"COc1cnccc1-c1ccc2nc(Nc3cc(CN4CCN(C(=O)C5CC5(F)F)CC4)ccn3)[nH]c2c1 (racemic) [Example 04.08, ((1RS)-2,2-difluorocyclopropyl){4-[(2-{[6-(3-methoxypyridin-4-yl)-1H-benzimidazol-2-yl]amino}pyridin-4-yl)methyl]piperazin-1-yl}methanone]"
3,0.00088,"CC(c1ccnc(Nc2nc3ccc(-c4cnn(CC5CCC5)c4)c(Cl)c3[nH]2)c1)N1CCN(C(=O)C2CC2)CC1 (single isomer, unassigned) [Example 75.03, (4-{(1R or 1S)-1-[2-({7-chloro-6-[1-(cyclobutylmethyl)-1H-pyrazol-4-yl]-1H-benzimidazol-2-yl}amino)pyridin-4-yl]ethyl}piperazin-1-yl)(cyclopropyl)methanone]"
4,0.402,"Cc1cc(-c2ccc3nc(Nc4cc(CN5CCN(C(=O)CC(F)(F)F)CC5)ccn4)[nH]c3c2)nc(N(C)C)n1 [Example 178.02, 1-(4-{[2-({6-[2-(dimethylamino)-6-methylpyrimidin-4-yl]-1H-benzimidazol-2-yl}amino)pyridin-4-yl]methyl}piperazin-1-yl)-3,3,3-trifluoropropan-1-one]"
5,0.0124,"CC(c1ccnc(Nc2nc3ccc(-c4ccncn4)cc3[nH]2)c1)N1CCN(C(=O)C2CC2)CC1 (single isomer, unassigned) [Example 23.05.01.B, cyclopropyl{4-[(1S or 1R)-1-(2-{[6-(pyrimidin-4-yl)-1H-benzimidazol-2-yl]amino}pyridin-4-yl)ethyl]piperazin-1-yl}methanone]"
6,0.00186,"CC(c1ccnc(Nc2nc3ccc(-c4ccncn4)cc3[nH]2)c1)N1CCN(C(=O)CC(F)(F)F)CC1 (single isomer, unassigned) [Example 23.05.02.B, 3,3,3-trifluoro-1-{4-[(1S or 1R)-1-(2-{[6-(pyrimidin-4-yl)-1H-benzimidazol-2-yl]amino}pyridin-4-yl)ethyl]piperazin-1-yl}propan-1-one]"
7,0.38,"O=C(C1CC1)N1CCN(Cc2ccnc(Nc3nc4ccc(-c5cnc(Cl)nc5)cc4[nH]3)c2)CC1 [Example 45.02.02, {4-[(2-{[6-(2-chloropyrimidin-5-yl)-1H-benzimidazol-2-yl]amino}pyridin-4-yl)methyl]piperazin-1-yl}(cyclopropyl)methanone]"
8,1.33,"Cc1ncc(-c2ccc3nc(Nc4cc(CN5CCN(C(=O)C6CC6)CC5)ccn4)[nH]c3c2)cn1 [Example 45.03.02, cyclopropyl{4-[(2-{[6-(2-methylpyrimidin-5-yl)-1H-benzimidazol-2-yl]amino}pyridin-4-yl)methyl]piperazin-1-yl}methanone]"
9,0.046,"CC(c1ccnc(Nc2nc3ccc(-c4cnn(CC5CC5(C)C)c4)cc3[nH]2)c1)N1CCN(C(=O)OC(C)(C)C)CC1 (single isomer, unassigned) [Example 67.01, tert-butyl 4-[(1R or 1S)-1-(2-{[6-(1-{[(1RS)-2,2-dimethylcyclopropyl]methyl}-1H-pyrazol-4-yl)-1H-benzimidazol-2-yl]amino}pyridin-4-yl)ethyl]piperazine-1-carboxylate]"
10,0.26,"O=C(C1CC1)N1CCN(Cc2ccnc(Nc3nc4ccc(-c5c(F)cncc5Cl)cc4[nH]3)c2)CC1 [Example 132.03, {4-[(2-{[6-(3-chloro-5-fluoropyridin-4-yl)-1H-benzimidazol-2-yl]amino}pyridin-4-yl)methyl]piperazin-1-yl}(cyclopropyl)methanone]"
11,0.0014,"CC(c1ccnc(Nc2nc3ccc(-c4cnn(CC5CCC5)c4)c(Cl)c3[nH]2)c1)N1CCN(C(=O)CC(F)(F)F)CC1 (single isomer, unassigned) [Example 75.02, 1-(4-{(1R or 1S)-1-[2-({7-chloro-6-[1-(cyclobutylmethyl)-1H-pyrazol-4-yl]-1H-benzimidazol-2-yl}amino)pyridin-4-yl]ethyl}piperazin-1-yl)-3,3,3-trifluoropropan-1-one]"
12,0.0418,"COc1cncnc1-c1ccc2nc(Nc3cc(CN4CCN(S(=O)(=O)N5CC(C)OC(C)C5)CC4)ccn3)[nH]c2c1 (centres unmarked) [Example 35.01.18, N-[4-({4-[(2,6-dimethylmorpholin-4-yl)sulfonyl]piperazin-1-yl}methyl)pyridin-2-yl]-6-(5-methoxypyrimidin-4-yl)-1H-benzimidazol-2-amine]"
13,0.0205,"CC(c1ccnc(Nc2nc3ccc(-c4cc(OCC(F)(F)C(F)(F)F)ncn4)cc3[nH]2)c1)N1CCN(C(=O)CC(F)(F)F)CC1 (single isomer, unassigned) [Example 166.02, 3,3,3-trifluoro-1-(4-{(1R or 1S)-1-[2-({6-[6-(2,2,3,3,3-pentafluoropropoxy)pyrimidin-4-yl]-1H-benzimidazol-2-yl}amino)pyridin-4-yl]ethyl}piperazin-1-yl)propan-1-one]"
14,0.0948,O=C(C1CC1)N1CCN(Cc2ccnc(Nc3nc4ccc(-c5ncnc(NCC6CCC6)c5F)cc4[nH]3)c2)CC1 [Example 191.03]
15,0.18,"Cc1noc(-c2ccc3nc(Nc4cc(CN5CCN(C(=O)c6ccccc6)CC5)ccn4)[nH]c3c2)n1 [Example 101.10, {4-[(2-{[6-(3-methyl-1,2,4-oxadiazol-5-yl)-1H-benzimidazol-2-yl]amino}pyridin-4-yl)methyl]piperazin-1-yl}(phenyl)methanone]"
16,0.015,"O=C(CC(F)(F)F)N1CCN(Cc2ccnc(Nc3nc4ccc(-c5ccnc(C(F)F)c5)cc4[nH]3)c2)CC1 [Example 139.02, 1-(4-{[2-({6-[2-(difluoromethyl)pyridin-4-yl]-1H-benzimidazol-2-yl}amino)pyridin-4-yl]methyl}piperazin-1-yl)-3,3,3-trifluoropropan-1-one]"
17,0.000473,"CC(c1ccnc(Nc2nc3ccc(-c4cc(N5CCCC5)ncn4)cc3[nH]2)c1)N1CCN(C(=O)C2CC2(F)F)CC1 (single isomer, unassigned) [Example 117.05, ((1RS)-2,2-difluorocyclopropyl)(4-{(1R or 1S)-1-[2-({6-[6-(pyrrolidin-1-yl)pyrimidin-4-yl]-1H-benzimidazol-2-yl}amino)pyridin-4-yl]ethyl}piperazin-1-yl)methanone]"
18,0.152,"CN(C)c1ccnc(-c2ccc3nc(Nc4cc(CN5CCN(C(=O)CC(F)(F)F)CC5)ccn4)[nH]c3c2)n1 [Example 181.02, 1-(4-{[2-({6-[4-(dimethylamino)pyrimidin-2-yl]-1H-benzimidazol-2-yl}amino)pyridin-4-yl]methyl}piperazin-1-yl)-3,3,3-trifluoropropan-1-one]"
19,0.0047,"CCNc1cc(-c2ccc3nc(Nc4cc(CN5CCN(C(=O)OC(C)(C)C)CC5)ccn4)[nH]c3c2)ncn1 [Example 149.01, tert-butyl 4-{[2-({6-[6-(ethylamino)pyrimidin-4-yl]-1H-benzimidazol-2-yl}amino)pyridin-4-yl]methyl}piperazine-1-carboxylate]"

row,SMILES,IC50 [µM]
1,"CN(C)c1cc(-c2ccc3nc(Nc4cc(CN5CCN(C(=O)CC(F)(F)F)CC5)ccn4)[nH]c3c2)ncn1 [Example 143.02, 1-(4-{[2-({6-[6-(dimethylamino)pyrimidin-4-yl]-1H-benzimidazol-2-yl}amino)pyridin-4-yl]methyl}piperazin-1-yl)-3,3,3-trifluoropropan-1-one]",0.0082
